Laboratory results reported in paper PMC5344255, “Design, Synthesis and Biochemical Evaluation of Novel Selective Estrogen Receptor Ligand Conjugates Incorporating an Endoxifen-Combretastatin Hybrid Scaffold” (Biomedicines, 2016).
pIC50: −log10 of the molar value. Values joined by “and” are separate entries in the source; they are usually repeats but may differ in a detail not shown here. Equal values may be shown once. Marks after values point to notes of the source that are not given here.

Columns and labels:
[1] = test system: HCT-2998; test: NCI 60 cell line screen; type: cell-based, human; settings: HCT-2998 (Colon Cancer)
[2] = test system: DU-145; test: NCI 60 cell line screen; type: cell-based, human; settings: DU-145 (Prostate cancer)
[3] = test system: 786-0; test: NCI 60 cell line screen; type: cell-based, human; settings: 786-0 (Renal Cancer); one-dose 10 µM
[4] = test system: A549/ATCC; test: NCI 60 cell line screen; type: cell-based, human; settings: A549/ATCC (Non-Small Cell Lung Cancer)
[5] = test system: LOX IMV1; test: NCI 60 cell line screen; type: cell-based, human; settings: LOX IMV1 (Melanoma); one-dose 10 µM
[6] = test system: SK-MEL-28; test: NCI 60 cell line screen; type: cell-based, human; settings: SK-MEL-28 (Melanoma); one-dose 10 µM
[7] = test system: SF-268; test: NCI 60 cell line screen; type: cell-based, human; settings: SF-268 (CNS Cancer)
[8] = test system: MCF-7 human breast cancer cells; test: MTT assay for antiproliferative effects in MCF-7; type: cell-based; settings: Homo sapiens, MCF7, MCF-7, MTT assay
Summary of the method: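 MCF-7 grown in MEM and MDA-MB-231 in D-MEM, each with 10% FBS, at 37 °C and 5% CO2. Viability by MTT reduction to formazan by metabolically active cells, plotted against compound concentration. Three experiments in triplicate, given as mean ± SEM.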

[9] = test system: SNB-75; test: NCI 60 cell line screen; type: cell-based, human; settings: SNB-75 (CNS Cancer)
[10] = test system: SF539; test: NCI 60 cell line screen; type: cell-based, human; settings: SF539 (CNS Cancer)
[11] = test system: SW-620; test: NCI 60 cell line screen; type: cell-based, human; settings: SW-620 (Colon Cancer)
[12] = test system: PC-3; test: NCI 60 cell line screen; type: cell-based, human; settings: PC-3 (Prostate cancer)
[13] = test system: CCRF-CEM; test: NCI 60 cell line screen; type: cell-based, human; settings: CCRF-CEM (Leukemia)
[14] = test system: UACC-257; test: NCI 60 cell line screen; type: cell-based, human; settings: UACC-257 (Melanoma); one-dose 10 µM
[15] = test system: COLO 205; test: NCI 60 cell line screen; type: cell-based
[16] = test system: OVCAR-4; test: NCI 60 cell line screen; type: cell-based, human; settings: OVCAR-4 (Ovarian Cancer); one-dose 10 µM
[17] = test system: U251; test: NCI 60 cell line screen; type: cell-based, human; settings: U251 (CNS Cancer)
[18] = test system: HOP-92; test: NCI 60 cell line screen; type: cell-based, human; settings: HOP-92 (Non-Small Cell Lung Cancer)
[19] = test system: SK-MEL-5; test: NCI 60 cell line screen; type: cell-based
[20] = test system: Ishikawa cell line of human endometrial adenocarcinoma cells; test: Ishikawa assay, estrogen stimulation of alkaline phosphatase activity; type: cell-based
Protocol: The Ishikawa assay is used to measure estrogen stimulation of alkaline phosphatase enzyme activity (AlkP) by the Ishikawa cell line of human endometrial adenocarcinoma cells. The Ishikawa assay provides a measure of the agonist activity of a compound. […] The assay was carried out following the method of Littlefield et al.. The batch of Ishikawa cells were obtained as a gift from Professor R. Hochberg—who developed the alkaline phosphatase assay in Yale University, CT, USA.
The Ishikawa assay is used to measure estrogen stimulation of alkaline phosphatase enzyme activity (AlkP) by the Ishikawa cell line of human endometrial adenocarcinoma cells. […] The conjugate was dosed in duplicate.

[21] = test system: HT29; test: NCI 60 cell line screen; type: cell-based, human; settings: HT29 (Colon Cancer)
[22] = test system: K-562; test: NCI 60 cell line screen; type: cell-based, human; settings: K-562 (Leukemia)

**Q.** How did the “GI% (10^−5 M)” value ([1]; one-dose 10 µM) turn out when `CCC(=C(c1ccc(O)cc1)c1ccc(OCCN(C)C(=O)/C(=C/c2ccc(OC)c(O)c2)c2cc(OC)c(OC)c(OC)c2)cc1)c1ccc(O)cc1` (mixture of isomers) [Compound 28, (E)-N-(2-{4-[(E/Z)-1,2-Bis-(4-hydroxyphenyl)but-1-enyl]-phenoxy}ethyl)-3-(3-hydroxy-4-methoxyphenyl)-N-methyl-2-(3,4,5-trimethoxyphenyl)acrylamide] was run?
**A.** 100 ^d,j %

**Q.** And the GI50 ([1]; Homo sapiens, 60 cell, five-dose screen)?
**A.** 1250 nM

**Q.** And the “GI% (10^−5 M)” value ([2]; one-dose 10 µM)?
**A.** 100 ^d,o %

**Q.** What about the GI50 ([2]; Homo sapiens, five-dose screen) of the same compound?
**A.** 1660 nM

**Q.** And the “GI% (10^−5 M)” value [3]?
**A.** 1.91%

**Q.** What about the “GI% (10^−5 M)” value ([4]; one-dose 10 µM) of the same compound?
**A.** 86.97%

**Q.** And the GI50 ([4]; Homo sapiens, five-dose screen)?
**A.** 2880 nM

**Q.** What about the “GI% (10^−5 M)” value [5] of the same compound?
**A.** 1.55%

**Q.** And the “GI% (10^−5 M)” value [6]?
**A.** 1.65%

**Q.** What about the GI50 ([7]; Homo sapiens, five-dose screen) of the same compound?
**A.** 1690 nM

**Q.** And the “GI% (10^−5 M)” value ([7]; one-dose 10 µM)?
**A.** 84.22%

**Q.** What about the pIC50 ([8]; mean of at least three experiments in triplicate) of the same compound?
**A.** 8.30

**Q.** And the IC50 ([8]; values in nM)?
**A.** 0.005 nM

**Q.** What about the GI50 ([9]; Homo sapiens, five-dose screen) of the same compound?
**A.** 5960 nM

**Q.** What about the “GI% (10^−5 M)” value ([9]; one-dose 10 µM) of the same compound?
**A.** 60.65%

**Q.** And the GI50 ([10]; Homo sapiens, SF-539, five-dose screen)?
**A.** 1180 nM

**Q.** And the “GI% (10^−5 M)” value ([10]; one-dose 10 µM)?
**A.** 100 ^d,n %

**Q.** What about the GI50 ([11]; Homo sapiens, five-dose screen) of the same compound?
**A.** 1210 nM

**Q.** What about the “GI% (10^−5 M)” value ([11]; one-dose 10 µM) of the same compound?
**A.** 81.32%

**Q.** And the GI50 ([12]; Homo sapiens, five-dose screen)?
**A.** 1730 nM

**Q.** And the “GI% (10^−5 M)” value ([12]; one-dose 10 µM)?
**A.** 86.32%

**Q.** And the “GI% (10^−5 M)” value ([13]; one-dose 10 µM)?
**A.** 72.48%

**Q.** What about the GI50 ([13]; Homo sapiens, five-dose screen) of the same compound?
**A.** 1770 nM

**Q.** And the “GI% (10^−5 M)” value [14]?
**A.** 2.83%

**Q.** And the “GI% (10^−5 M)” value ([15]; COLO 205 (Colon Cancer), one-dose 10 µM)?
**A.** 100 ^d,i %

**Q.** And the GI50 ([15]; Homo sapiens, COLO 205)?
**A.** 2150 nM

**Q.** And the LC50 ([15]; Homo sapiens, COLO 205, five-dose screen)?
**A.** 26200 nM

**Q.** What about the “GI% (10^−5 M)” value [16] of the same compound?
**A.** 2.59%

**Q.** What about the GI50 ([17]; Homo sapiens, U-251, five-dose screen) of the same compound?
**A.** 1740 nM

**Q.** What about the “GI% (10^−5 M)” value ([17]; one-dose 10 µM) of the same compound?
**A.** 93% and 93.37%

**Q.** And the “GI% (10^−5 M)” value ([18]; one-dose 10 µM)?
**A.** 86.19%

**Q.** What about the GI50 ([18]; Homo sapiens, five-dose screen) of the same compound?
**A.** 764 nM

**Q.** What about the CC50 ([19]; Homo sapiens, five-dose screen, read-out: LC50 (the source's name)) of the same compound?
**A.** 34500 nM

**Q.** What about the lethality ([19]; one-dose screen 10 μM) of the same compound?
**A.** 60%

**Q.** And the “estrogenic activity (alkaline phosphatase stimulation)” value ([20]; compound dosed individually)?
**A.** does not display estrogenic stimulation in the cell line

**Q.** And the “estrogen stimulation (alkaline phosphatase) in mixture with estradiol” value ([20]; dosed with 1 nM estradiol spike)?
**A.** a reduction in estrogenic stimulation at low concentrations and a more pronounced reduction in estrogen stimulation over the range of concentrations when compared with the Tamoxifen mixture

**Q.** And the “GI% (10^−5 M)” value ([21]; one-dose 10 µM)?
**A.** 100 ^d,l %

**Q.** What about the GI50 ([21]; Homo sapiens, HT-29, five-dose screen) of the same compound?
**A.** 1160 nM

**Q.** And the GI50 ([22]; Homo sapiens, K562, five-dose screen)?
**A.** 2570 nM

**Q.** What about the “GI% (10^−5 M)” value ([22]; one-dose 10 µM) of the same compound?
**A.** 86.1%
